One assay addresses human CYP11B1 (Homo sapiens (Human), UniProt P15538). The assay is described as follows: G-402 cellular enzyme assay, human CYP11B1 (cortisol release). The class given is cell-based. Particulars: G-402 cells expressing human CYP11B1, 1 μM Deoxycortisol. The source says: (§1) The expression plasmids contains the ORF for either human/cyno CYP11B1 or CYP11B2 under the control of a suitable promoter (CMV-promoter) and a suitable resistance marker (neomycin). Using standard techniques the expression plasmid is transfected into G-402 cells and these cells are then selected for expressing the given resistance markers. Individual cell-clones are then selected and assessed for displaying the desired enzymatic activity using 11-Deoxycorticosterone (Cyp 11B2) or 11-Deoxycortisol (Cyp 11B1) as a substrate.
(§2) G-402 cells expressing CYP11 constructs were established as described above and maintained in McCoy's 5a Medium Modified, ATCC Catalog No. 30-2007 containing 10% FCS and 400 μg/ml G418 (Geneticin) at 37° C. under an atmosphere of 5% CO2/95% air. […] For assaying enzymatic activity, cells were plated onto 96 well plates and incubated for 16 h. An aliquot of the supernatant is then transferred and analyzed for the concentration of the expected product (Aldosterone for CYP11B2; Cortisol for CYP11B1). The concentrations of these steroids can be determined using HTRF assays from CisBio analyzing either Aldosterone or Cortisol.
(§3) Inhibition of the release of produced steroids can be used as a measure of the respective enzyme inhibition by test compounds added during the cellular enzyme assay. The dose dependent inhibition of enzymatic activity by a compound is calculated by means of plotting added inhibitor concentrations (x-axes) vs. measured steroid/product level (y-axes). The inhibition is then calculated by fitting the following 4-parameter sigmoidal function (Morgan-Mercer-Flodin (MMF) model) to the raw data points using the least squares method:
(§4) [formula] wherein, A is the maximum y value, B is the EC50 factor determined using XLFit, C is the minimum y value and D is the slope value.
(§5) EC50 values for compounds claimed herein were tested with the G402-based assay system described. Cyp 11B2 enzyme activity was tested in presence of 1 μM Deoxycorticosterone and variable amounts of inhibitors; Cyp 11B1 enzyme activity was tested in presence of 1 μM Deoxycortisol and variable amounts of inhibitors.

For the next assay, the target named is CYP11B2 (Homo sapiens (Human), UniProt P19099). The assay is described as follows: G-402 cellular enzyme assay, human CYP11B2 (aldosterone release). The assay is classed as cell-based. Particulars: G-402 cells expressing human CYP11B2, 1 μM Deoxycorticosterone.
From the text: as §1, §2, §3, §4, §5

Sequence of CYP11B2 (P19099 25-503): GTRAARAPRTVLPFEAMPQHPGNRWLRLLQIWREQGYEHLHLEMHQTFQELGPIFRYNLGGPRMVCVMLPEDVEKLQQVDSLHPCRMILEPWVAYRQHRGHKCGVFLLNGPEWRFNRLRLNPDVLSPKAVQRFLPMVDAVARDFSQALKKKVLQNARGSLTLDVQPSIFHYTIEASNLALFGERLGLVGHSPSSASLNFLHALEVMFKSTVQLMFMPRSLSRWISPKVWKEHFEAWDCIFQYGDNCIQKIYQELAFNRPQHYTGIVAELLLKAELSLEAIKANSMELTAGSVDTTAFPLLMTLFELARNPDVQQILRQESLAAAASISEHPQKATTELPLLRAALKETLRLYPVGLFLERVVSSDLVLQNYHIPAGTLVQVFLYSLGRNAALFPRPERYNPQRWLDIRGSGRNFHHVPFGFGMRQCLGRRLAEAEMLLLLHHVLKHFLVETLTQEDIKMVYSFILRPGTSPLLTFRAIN
Sequence of human CYP11B1 (P15538 25-503): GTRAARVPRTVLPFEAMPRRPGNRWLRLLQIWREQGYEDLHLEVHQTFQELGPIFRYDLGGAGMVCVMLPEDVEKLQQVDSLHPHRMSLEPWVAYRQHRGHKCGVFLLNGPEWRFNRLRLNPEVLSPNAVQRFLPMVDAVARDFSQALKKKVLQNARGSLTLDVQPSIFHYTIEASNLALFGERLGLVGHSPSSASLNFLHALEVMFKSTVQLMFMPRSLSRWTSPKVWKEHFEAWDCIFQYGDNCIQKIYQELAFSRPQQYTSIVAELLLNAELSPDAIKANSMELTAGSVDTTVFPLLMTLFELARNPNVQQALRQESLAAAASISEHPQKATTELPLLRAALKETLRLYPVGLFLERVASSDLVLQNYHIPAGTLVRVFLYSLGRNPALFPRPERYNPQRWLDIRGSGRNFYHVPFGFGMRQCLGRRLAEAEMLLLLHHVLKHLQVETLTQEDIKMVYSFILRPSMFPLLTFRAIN

Consider `N#Cc1ccc(-c2cncc3c2CCCC3N)cc1` (racemic) [Example 1, (rac)-4-(8-Amino-5,6,7,8-tetrahydroisoquinolin-4-yl)benzonitrile], for which the half-maximal effective concentration (EC50) on human CYP11B1 is 173 nM; at CYP11B2, 42 nM. For the compound `CCS(=O)(=O)NC1CCCc2c(-c3ccc(C#N)cc3)cncc21` (racemic) [Example 2, (rac)-N-(4-(4-Cyanophenyl)-5,6,7,8-tetrahydroisoquinolin-8-yl)ethanesulfonamide], the 50% effective concentration (EC50) was determined as 1090 nM on human CYP11B1 and 207 nM on CYP11B2. Turning to `CCCNS(=O)(=O)NC1CCCc2c(-c3ccc(C#N)cc3)cncc21` (racemic) [Example 3, (rac)-N-[4-(4-Cyanophenyl)-5,6,7,8-tetrahydroisoquinolin-8-yl]-N′-propylsulfuric diamide], the EC50 stood at 291 nM at human CYP11B1 and 52 nM at CYP11B2.

For the compound `CCNC(=O)NC1CCCc2c(-c3ccc(C#N)cc3)cncc21` (racemic) [Example 4, (rac)-1-(4-(4-Cyanophenyl)-5,6,7,8-tetrahydroisoquinolin-8-yl)-3-ethylurea], the EC50 came out at 2170 nM at human CYP11B1 and 220 nM at CYP11B2.

`CCC(=O)NC1CCCc2c(-c3ccc(C#N)cc3)cncc21` (racemic) [Example 5, (rac)-N-(4-(4-Cyanophenyl)-5,6,7,8-tetrahydroisoquinolin-8-yl)propionamide] showed an EC50 on human CYP11B1 of 760 nM. For `CC(=O)NC1CCCc2c(-c3ccc(C#N)cc3)cncc21` (racemic) [Example 8, (rac)-N-(4-(4-Cyanophenyl)-5,6,7,8-tetrahydroisoquinolin-8-yl)acetamide], the concentration giving a half-maximal response (EC50) was 422 nM on human CYP11B1 and 43 nM on CYP11B2. With `CCOC(=O)NC1CCCc2c(-c3ccc(C#N)cc3)cncc21` (racemic) [Example 10, (rac)-Ethyl 4-(4-cyanophenyl)-5,6,7,8-tetrahydroisoquinolin-8-ylcarbamate], the EC50 on human CYP11B1 came out at 658 nM; on CYP11B2, 67 nM. As for `N#Cc1ccc(-c2cncc3c2CCCC3O)cc1` (racemic) [Example 11, (rac)-4-(8-Hydroxy-5,6,7,8-tetrahydroisoquinolin-4-yl)benzonitrile], the concentration for a half-maximal effect (EC50) at human CYP11B1 worked out at 31 nM; at CYP11B2, 8 nM. Taken in the same sequence, the figures for `CCNC(=O)OC1CCCc2c(-c3ccc(C#N)cc3)cncc21` (racemic) [Example 12, (rac)-4-(4-Cyanophenyl)-5,6,7,8-tetrahydroisoquinolin-8-yl ethylcarbamate] were 30 nM and 25 nM. `COC1CCCc2c(-c3ccc(C#N)cc3)cncc21` (racemic) [Example 13, (rac)-4-(8-Methoxy-5,6,7,8-tetrahydroisoquinolin-4-yl)benzonitrile]: the EC50 was found to be 8 nM on human CYP11B1 and 10 nM on CYP11B2.

With `Cc1ccc(C2(O)CCCc3c(-c4ccc(C#N)cc4)cncc32)cc1C` (racemic) [Example 14, (rac)-4-(8-(3,4-Dimethylphenyl)-8-hydroxy-5,6,7,8-tetrahydroisoquinolin-4-yl)benzonitrile], the figures for the EC50 on human CYP11B1 and on CYP11B2 were 73 nM and 16 nM, respectively. Taken in the same sequence, the figures for `CCC(=O)NC1CCc2c(-c3ccc(C#N)cc3)cncc21` (racemic) [Example 17, (rac)-N-(4-(4-Cyanophenyl)-6,7-dihydro-5H-cyclopenta[c]pyridin-7-yl)propionamide] were 511 nM and 22 nM. The like results for `CCC(=O)NC1CCCc2c(-c3ccc(F)c(Cl)c3)cncc21` (racemic) [Example 20, (rac)-N-(4-(3-Chloro-4-fluorophenyl)-5,6,7,8-tetrahydroisoquinolin-8-yl)propionamide] were, in that order, 480 nM and 24 nM.

On to `CCC(=O)NC1CCCc2c(-c3ccc(C(F)(F)F)cc3)cncc21` (racemic) [Example 21, (rac)-N-(4-(4-(Trifluoromethyl)phenyl)-5,6,7,8-tetrahydroisoquinolin-8-yl)propionamide], for which the EC50 at human CYP11B1 stood at 7090 nM; on CYP11B2, 82 nM. Taken in the same sequence, the figures for `CCC(=O)NC1CCCc2c(-c3ccc(Cl)cc3)cncc21` (racemic) [Example 24, (rac)-N-(4-(4-Chlorophenyl)-5,6,7,8-tetrahydroisoquinolin-8-yl)propionamide] were 1420 nM and 31 nM.

On to `CCC(=O)NC1CCCc2c(-c3ccc(F)c(C)c3)cncc21` (racemic) [Example 27, (rac)-N-(4-(4-Fluoro-3-methylphenyl)-5,6,7,8-tetrahydroisoquinolin-8-yl)propionamide], for which the EC50 at human CYP11B1 was determined as 625 nM; on CYP11B2 it was 14 nM.

For `CCC(=O)NC1CCCc2c(-c3ccc(Cl)cc3F)cncc21` (racemic) [Example 30, (rac)-N-(4-(4-Chloro-2-fluorophenyl)-5,6,7,8-tetrahydroisoquinolin-8-yl)propionamide], the results for the EC50 on human CYP11B1 and at CYP11B2 were 1500 nM and 28 nM, respectively. In the case of `CCC(=O)NC1CCCc2c(-c3ccc(C(F)(F)F)cc3F)cncc21` (racemic) [Example 33, (rac)-N-(4-(2-Fluoro-4-(trifluoromethyl)phenyl)-5,6,7,8-tetrahydroisoquinolin-8-yl)propionamide], the concentration for a half-maximal effect (EC50) was found to be 14700 nM at human CYP11B1 and 159 nM at CYP11B2. As to `CCC(=O)NC1CCCc2c(-c3ccc(Cl)c(F)c3)cncc21` (racemic) [Example 36, (rac)-N-(4-(4-Chloro-3-fluorophenyl)-5,6,7,8-tetrahydroisoquinolin-8-yl)propionamide], the figures for the EC50 at human CYP11B1 and at CYP11B2 were 1010 nM and 14 nM, respectively. Taken in the same sequence, the figures for `CCC(=O)NC1CCCc2c(-c3ccc(C(F)(F)F)c(F)c3)cncc21` (racemic) [Example 39, (rac)-N-(4-(3-Fluoro-4-(trifluoromethyl)phenyl)-5,6,7,8-tetrahydroisoquinolin-8-yl)propionamide] were 3240 nM and 29 nM. Compound `CCC(=O)NC1CCCc2c(-c3ccc(C#N)cc3)cncc21` (single isomer, unassigned; (+)) [Example 7, (+)-(R or S)—N-(4-(4-Cyanophenyl)-5,6,7,8-tetrahydroisoquinolin-8-yl)propionamide] showed an EC50 on human CYP11B1 of 263 nM. For the compound `C[C@@H](O)C(=O)NC1CCCc2c(-c3ccc(C(F)(F)F)cc3)cncc21` (single isomer, unassigned; (+)) [Example 47, (+)-(R)-2-Hydroxy-N—[(R or S)-4-(4-trifluoromethyl-phenyl)-5,6,7,8-tetrahydro-isoquinolin-8-yl]-propionamide], the 50% effective concentration (EC50) on CYP11B2 stood at 5750 nM. With `CCC(=O)NC1CCCc2c(-c3ccc(C#N)cc3)cncc21` (single isomer, unassigned; (-)) [Example 6, (−)-(S or R)—N-(4-(4-Cyanophenyl)-5,6,7,8-tetrahydroisoquinolin-8-yl)propionamide], on human CYP11B1, a half-maximal response (EC50) required 11700 nM.

Take `CCC(=O)NC1CCCc2c(-c3ccc(C(F)(F)F)cc3)cncc21` (single isomer, unassigned; (-)) [Example 22, (−)-(S or R)—N-(4-(4-(Trifluoromethyl)phenyl)-5,6,7,8-tetrahydroisoquinolin-8-yl)propionamide]: the response at CYP11B2 was half-maximal at 6380 nM (EC50). This counts as single-digit micromolar. Turning to `CCC(=O)NC1CCCc2c(-c3ccc(Cl)cc3F)cncc21` (single isomer, unassigned; (-)) [Example 31, (−)-(S or R)—N-(4-(4-Chloro-2-fluorophenyl)-5,6,7,8-tetrahydroisoquinolin-8-yl)propionamide], a half-maximal response at CYP11B2 (EC50) required 1220 nM. As to `CCC(=O)NC1CCc2c(-c3ccc(C(F)(F)F)cc3)cncc21` (single isomer, unassigned; (-)) [Example 50, (−)-(S or R)—N-(4-(4-(Trifluoromethyl)phenyl)-6,7-dihydro-5H-cyclopenta[c]pyridin-7-yl)propionamide], the EC50 at CYP11B2 is 5770 nM.

Turning to `C[C@@H](O)C(=O)NC1CCc2c(-c3ccc(C(F)(F)F)cc3)cncc21` (single isomer, unassigned; (-)) [Example 53, (−)-(R)-2-Hydroxy-N—((S or R)-4-(4-(trifluoromethyl)phenyl)-6,7-dihydro-5H-cyclopenta[c]pyridin-7-yl)propanamide], the EC50 at CYP11B2 was found to be 9100 nM.

`CCC(=O)NC1CCc2c(-c3ccc(F)c(C)c3)cncc21` (single isomer, unassigned; (-)) [Example 59, (−)-(S or R)—N-(4-(4-Fluoro-3-methylphenyl)-6,7-dihydro-5H-cyclopenta[c]pyridin-7-yl)propionamide] showed an EC50 on CYP11B2 of 1660 nM. Still for that read-out and setting: in the case of `CCS(=O)(=O)NC1CCc2c(-c3ccc(C(F)(F)F)c(F)c3)cncc21` (single isomer, unassigned; (-)) [Example 72, (−)-(S or R)—N-(4-(3-Fluoro-4-(trifluoromethyl)phenyl)-6,7-dihydro-5H-cyclopenta[c]pyridin-7-yl)ethanesulfonamide] it was 16500 nM.

As usually defined, the EC50 is the concentration needed to bring the measured effect to its halfway point.

(Values after patent US9187429B2, “Phenyl-tetrahydroisoquinoline derivatives” (Hoffmann-La Roche Inc., priority 2012, dated 2015).)
